According to PubChem BioAssay AID1963985 (Molecular Pharmacology Branch, DTP, NCI, 2024):
pIC50: −log10 of the molar value.

Test system: 252836-082-R-J2-PDC tumor spheroids, viability
Assay: Anticancer human tumor 252836-082-R-J2-PDC patient-derived head and neck squamous cell carcinoma cell line growth inhibition [PI3K]
Conditions: spheroids with HUVEC and MSC; for pIC50: curve of first compound; for viability, T/C: stronger effect = lower value
Summary of the method: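 Multi-cell spheroids combine tumor cells with HUVEC and human MSCs, treated with targeted agents alone or with inavolisib, alpelisib, duvelisib or copanlisib. Concentrations fall in half-log steps from at or near clinical Cmax, or from 10 microM where Cmax is unknown; viability read-out.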

[1] = second compound 0.00316 µM, first compound 0.0316 µM
[2] = second compound 0.00316 µM, first compound 0.1 µM
[3] = second compound 0.00316 µM, first compound 0.316 µM
[4] = second compound 0.00316 µM, first compound 1 µM
[5] = second compound 0.01 µM, first compound 0.0316 µM
[6] = second compound 0.01 µM, first compound 0.1 µM
[7] = second compound 0.01 µM, first compound 0.316 µM
[8] = second compound 0.01 µM, first compound 1 µM
[9] = second compound 0.0316 µM, first compound 0.0316 µM
[10] = second compound 0.0316 µM, first compound 0.1 µM
[11] = second compound 0.0316 µM, first compound 0.316 µM
[12] = second compound 0.0316 µM, first compound 1 µM
[13] = second compound 0.1 µM, first compound 0.0316 µM
[14] = second compound 0.1 µM, first compound 0.1 µM
[15] = second compound 0.1 µM, first compound 0.316 µM
[16] = second compound 0.1 µM, first compound 1 µM
[17] = second compound 0.316 µM, first compound 0.0316 µM
[18] = second compound 0.316 µM, first compound 0.1 µM
[19] = second compound 0.316 µM, first compound 0.316 µM
[20] = second compound 0.316 µM, first compound 1 µM
[21] = second compound 1 µM, first compound 0.0316 µM
[22] = second compound 1 µM, first compound 0.1 µM
[23] = second compound 1 µM, first compound 0.316 µM
[24] = second compound 1 µM, first compound 1 µM
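Note: spheroids exposed to agents for seven days before readout.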
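Throughout, for viability, T/C: percent of vehicle DMSO control viability so 100% = untreated growth.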

CCN1CCN(Cc2ccc(Nc3ncc(F)c(-c4cc(F)c5nc(C)n(C(C)C)c5c4)n3)nc2)CC1 + CC(Nc1ccc2c(c1)OCCn1cc(N3C(=O)OCC3C(F)F)nc1-2)C(N)=O
pIC50 (second compound 0.00316 µM): < 6.00
pIC50 (second compound 0.01 µM): < 6.00
pIC50 (second compound 0.0316 µM): < 6.00
pIC50 (second compound 0.1 µM): < 6.00
pIC50 (second compound 0.316 µM): 7.44
pIC50 (second compound 1 µM): > 8.50
viability, T/C (second compound 0.00316 µM, first compound 0.00316 µM): 87.8%
viability, T/C (second compound 0.00316 µM, first compound 0.01 µM): 86.1%
viability, T/C [1]: 75.3%
viability, T/C [2]: 93.1%
viability, T/C [3]: 82.7%
viability, T/C [4]: 76.5%
viability, T/C (second compound 0.01 µM, first compound 0.00316 µM): 90.3%
viability, T/C (second compound 0.01 µM, first compound 0.01 µM): 82.5%
viability, T/C [5]: 94.4%
viability, T/C [6]: 78.7%
viability, T/C [7]: 90%
viability, T/C [8]: 70.3%
viability, T/C (second compound 0.0316 µM, first compound 0.00316 µM): 79.1%
viability, T/C (second compound 0.0316 µM, first compound 0.01 µM): 79.6%
viability, T/C [9]: 73%
viability, T/C [10]: 74.1%
viability, T/C [11]: 80.6%
viability, T/C [12]: 81.3%
viability, T/C (second compound 0.1 µM, first compound 0.00316 µM): 73.7%
viability, T/C (second compound 0.1 µM, first compound 0.01 µM): 59.7%
viability, T/C [13]: 58.8%
viability, T/C [14]: 66.5%
viability, T/C [15]: 52.3%
viability, T/C [16]: 54.2%
viability, T/C (second compound 0.316 µM, first compound 0.00316 µM): 51.2%
viability, T/C (second compound 0.316 µM, first compound 0.01 µM): 47.4%
viability, T/C [17]: 51.5%
viability, T/C [18]: 53.3%
viability, T/C [19]: 50.8%
viability, T/C [20]: 44.3%
viability, T/C (second compound 1 µM, first compound 0.00316 µM): 47%
viability, T/C (second compound 1 µM, first compound 0.01 µM): 43.9%
viability, T/C [21]: 43.5%
viability, T/C [22]: 36.8%
viability, T/C [23]: 40.5%
viability, T/C [24]: 31.8%

Cn1ncc(Cl)c1-c1cc(C(=O)NC(CN)Cc2cccc(F)c2)sc1Cl (centres undefined) + CC(Nc1ccc2c(c1)OCCn1cc(N3C(=O)OCC3C(F)F)nc1-2)C(N)=O
pIC50 (second compound 0.00316 µM): 6.42
pIC50 (second compound 0.01 µM): 6.53
pIC50 (second compound 0.0316 µM): 6.48
pIC50 (second compound 0.1 µM): 6.80
pIC50 (second compound 0.316 µM): > 7.50
pIC50 (second compound 1 µM): > 7.50
viability, T/C [1]: 82.5%
viability, T/C [2]: 67.8%
viability, T/C [3]: 47.6%
viability, T/C [4]: 39.8%
viability, T/C (second compound 0.00316 µM, first compound 3.16 µM): 29.7%
viability, T/C (second compound 0.00316 µM, first compound 10 µM): 9.51%
viability, T/C [5]: 80.8%
viability, T/C [6]: 62.8%
viability, T/C [7]: 50%
viability, T/C [8]: 33.6%
viability, T/C (second compound 0.01 µM, first compound 3.16 µM): 26.7%
viability, T/C (second compound 0.01 µM, first compound 10 µM): 12.8%
viability, T/C [9]: 74.2%
viability, T/C [10]: 61.8%
viability, T/C [11]: 48.8%
viability, T/C [12]: 39.3%
viability, T/C (second compound 0.0316 µM, first compound 3.16 µM): 26.6%
viability, T/C (second compound 0.0316 µM, first compound 10 µM): 11.5%
viability, T/C [13]: 66.9%
viability, T/C [14]: 53.3%
viability, T/C [15]: 45.8%
viability, T/C [16]: 26.9%
viability, T/C (second compound 0.1 µM, first compound 3.16 µM): 24.7%
viability, T/C (second compound 0.1 µM, first compound 10 µM): 8%
viability, T/C [17]: 45.5%
viability, T/C [18]: 43.3%
viability, T/C [19]: 34.3%
viability, T/C [20]: 25.6%
viability, T/C (second compound 0.316 µM, first compound 3.16 µM): 22.4%
viability, T/C (second compound 0.316 µM, first compound 10 µM): 14.1%
viability, T/C [21]: 40.9%
viability, T/C [22]: 36.8%
viability, T/C [23]: 30.3%
viability, T/C [24]: 24.8%
viability, T/C (second compound 1 µM, first compound 3.16 µM): 23.7%
viability, T/C (second compound 1 µM, first compound 10 µM): 10.5%
